Consider 5 compounds from US20240398841A1, “BLADDER PERFUSION PHARMACEUTICAL COMPOSITION, PREPARATION METHOD THEREFOR AND APPLICATION THEREOF” (priority 2020, published 2024).

SMILES strings stand for the structures. Where “and” joins values, the source holds several entries; their conditions need not be identical. Equal values may be shown once. Where a name gives a salt, the structure may show the parent alone.

In data set [1] the test system is MB49 bladder cancer in situ. Put plainly: Doxorubicin (ADM)/R848 mixed lyophilized powder in bladder perfusion treatment of bladder tumor, tumor mass (Example G3). It counts as in vivo, mice. The settings on record: after two bladder perfusions; compound formulation with hydroxypropyl methylcellulose as penetration enhancer. How it is done: Example G3: Application of doxorubicin (ADM) used in combination with resiquimod (R848) in the treatment of bladder tumor.
The in-situ models of bladder cancer in mice were established by the same method as in Example G1, the mixed lyophilized powder formulation of doxorubicin and […] was prepared for later use, and the mice were randomly divided into groups (Blank: perfusion of 5% glucose solution: ADM: perfusion of the […] solution dissolved in normal saline: R848: perfusion of the resiquimod suspension dispersed in 5% glucose solution: ADM+R848: perfusion of the mixed lyophilized powder formulation of […] and resiquimod dissolved in 5% glucose solution), wherein hydroxypropyl methylcellulose was added as a penetration enhancer component before the compound formulation was used for bladder perfusion treatment. After two times of the bladder perfusion in each group, the bladder cancer in the mice was obtained by dissection, and the tumor mass was recorded.

The conditions of data set [2]: 1-9 days, two perfusions; EPI 60 μg, R837 360 μg; compared with blank group.
Experimental: Six mice in each of the four groups were perfused with the same dose of blank ultrapure water (ddH2O), R837 (360 μg), EPI (60 μg) and EPI (60 μg)+R837 (360 μg) for 1 hour, once a week, twice, and the body weight was recorded every other day. […] Next, we used a similar method to evaluate whether there was a usage range for the attenuation effect when EPI and R837 were used in combination in a mass ratio (1:10). Six mice in each of the four groups were perfused with the same dose of blank ultrapure water (ddH2O), R837 (600 μg), EPI (60 μg) and EPI (60 μg)+R837 (600 μg) for 1 hour, and the body weights was recorded every other day.
In data set [3] the test system is bladder in situ tumor (fLuc-MB49 cells). Kind of data set: Combined perfusion of EPI and R837 hydrochloride in different ratios for bladder in situ tumor, fluorescence imaging and survival (Example B4). It counts as in vivo, mice. The settings on record: for Survival rate: 14th day.
For a further data set, the system named is bladder cancer. The settings on record: TMX-101 gel formulation containing R837, bladder perfusion; cited from earlier work.
Data set [4] relates to MB49 bladder cancer in situ. Kind of data set: Pirarubicin (THP)/R837 mixed lyophilized powder in bladder perfusion treatment of bladder cancer, tumor mass (Example G2). It counts as in vivo, mice. The conditions noted are these: after two bladder perfusions, from tumor mass.
Experimental: Example G2: Application of pirarubicin (THP) used in combination with R837 in the treatment of bladder cancer.
The mice were randomly divided into the following groups:
THP: perfusion of the pirarubicin solution dissolved in 5% glucose solution;
After two times of bladder perfusion treatment, the bladder cancer in the mice was obtained by dissection, and the tumor mass was recorded. […] The Guinness formula q=E(A+B)/(EA+EB−EA*EB) is used to calculate the drug synergy, wherein E(A+B) is the tumor inhibition rate in the compound formulation treatment group, and EA and EB are the tumor inhibition rates when the two components are used respectively.
Data set [5] can be described thus: General formulation study of simple mixtures of epirubicin and imiquimod (stability, solubility versus pH). It is filed as physicochemical.
Data set [6] relates to bladder in situ tumor (fLuc-MB49 cells). The settings on record: mouse, in vivo.
For data set [7] the test system is unchanged. Kind of data set: Combined perfusion of THP and R837 hydrochloride for bladder in situ tumor, in vivo fluorescence imaging and survival (Example B2). Further details: species or system mice. The conditions noted are these: until 35 days.
Where [8] appears, read: Day 0 (before the first perfusion).

As to `COc1cccc2c1C(=O)c1c(O)c3c(c(O)c1C2=O)C[C@@](O)(C(=O)CO)C[C@@H]3O[C@H]1C[C@H](N)[C@H](O)[C@H](C)O1` [DOX, doxorubicin hydrochloride], the tumor inhibition rate in data set [1] is recorded as 8.6%.

As to `COc1cccc2c1C(=O)c1c(O)c3c(c(O)c1C2=O)C[C@@](O)(C(=O)CO)C[C@@H]3O[C@H]1C[C@H](N)[C@@H](O)[C@H](C)O1` [EPI, epirubicin hydrochloride], the “body weights of the mice” value in data set [2] was “significantly lower”. The Survival rate in data set [3] is recorded as 67%. Also, the entries for the “Mean fluorescence intensity of bladder in situ tumor tissue, group Mean” value in data set [3] (setting [8]), in data set [3] (Day 7) and in data set [3] (Day 14) were 1.957 10^5, 3.893 10^5 and 10.8 10^5, respectively. In data set [3] (Day 14, listed as B4-3, hydrochloride), the “Mean fluorescence intensity of bladder in situ tumor tissue (single mice)” value is 12.8 10^5 and 10.9 10^5 and 8.7 10^5.

As to `CC(C)Cn1cnc2c(N)nc3ccccc3c21` [Sample R837, imiquimod], the “safety in clinical trial” value in the data set with bladder cancer is listed as “good safety”. In addition, the tumor inhibition rate in data set [4] is listed as 38.33%. Further, the “pH above which imiquimod precipitates from the solution” value in data set [5] was > 5.0. Besides, the “tumor fluorescence intensity / tumor inhibition effect” value in data set [6] is recorded as “no significant tumor inhibition effect”. For the same compound, the Survival rate in data set [3] is 100%. In addition, the “Mean fluorescence intensity of bladder in situ tumor tissue, group Mean” value in data set [3] (setting [8]) is recorded as 1.877 10^5; in data set [3] (Day 7), 5.922 10^5; in data set [3] (Day 14), 9.287 10^5. The “Mean fluorescence intensity of bladder in situ tumor tissue (single mice)” value in data set [3] (Day 7, listed as B4-2) is 6.37 10^5 and 5.49 10^5 and 5.35 10^5 and 6.92 10^5 and 6.05 10^5; in data set [3] (Day 14, listed as B4-2) it was 7.97 10^5 and 10.2 10^5 and 9.04 10^5 and 12.7 10^5 and 7.53 10^5 and 8.28 10^5.

For `CCOCc1nc2c(N)nc3ccccc3c2n1CC(C)(C)O` [Sample R848, resiquimod], the tumor inhibition rate in data set [1] turned out to be 21.8%.

The compound `COc1cccc2c1C(=O)c1c(O)c3c(c(O)c1C2=O)C[C@@](O)(C(=O)CO)C[C@@H]3O[C@H]1C[C@H](N)[C@H](O[C@@H]2CCCCO2)[C@H](C)O1` [THP, pirarubicin hydrochloride] registered a tumor inhibition rate in data set [4] of 28.23%. The Survival rate in data set [7] amounted to 60%.
